Tested on: patients with coronary artery disease undergoing PCI
Experiment: Randomized, double-blind, placebo-controlled trial of intracoronary propranolol before percutaneous coronary intervention
Assay type: in vivo
Description: Study population: This study was a randomized, double-blind, placebo-controlled trial. Patients with coronary artery disease undergoing PCI were considered for inclusion. Patients on chronic beta blockers were included. Exclusion criteria included myocardial infarction (“MI”) within 24 h or recent MI with elevation of CK or CKMB at time of randomization (a normal CK and CKMB and elevated troponin T allowed inclusion); cardiogenic shock; systolic blood pressure<100 mm Hg; heart rate<50/min; NYHA class III or IV heart failure; severe left ventricular dysfunction (ejection fraction<30%); severe renal insufficiency (creatinine>3.0 mg/dl); allergy to propranolol; or second planned intervention within 30 days. Patients with chronic obstructive pulmonary disease (“COPD”) were not specifically excluded.
Study protocol: Before initiation of PCI, all patients were pretreated with aspirin and received weight-adjusted heparin, with a target activated clotting time of >300 seconds in the absence of a glycoprotein IIb/IIIa (“GP IIb/IIIa”) inhibitor and 200-300 seconds with a GP IIb/IIIa inhibitor, which was allowed but not mandated.
Patients were randomized in a 1:1 ratio to receive either placebo or propranolol. The randomization allocation code was generated using complete block design. Randomization was performed after coronary angiography confirmed the need for PCI. In patients with a total occlusion, the lesion was crossed with a guide wire before randomization.
Study drug kits were packaged by hospital pharmacy to be indistinguishable from each other with a concentration of 1 mg/ml; the identity of the injectate (i.e., propranolol or placebo) was not known to the investigators or to the patients. […] The study drug was thus delivered directly into the myocardial region supplied by the stenotic coronary artery undergoing PCI. Balloon inflation was performed after the IC injection of propranolol or placebo. Blood samples were taken prior to PCI, immediately after PCI, and every 8 h for 24 h to assay CK and CKMB. Blood samples were taken at 16 h for troponin T analysis. Additional blood levels were obtained when any patient experienced possible ischemic symptoms. The 30-day contact was made by clinic visit or telephone interview.
Study endpoints: The primary endpoint was the incidence of post-procedural elevation of CKMB above the upper limit of normal (“ULN”). The “threshold” for the development of an excess in adverse events relative to the level of CKMB appears to be a continuous function beginning with any elevation of CKMB or troponin T with the frequency of long-term adverse events, particular death, increasing with the level of enzyme rise (Simoons, which is hereby incorporated by reference). Secondary endpoints included (1) incidence of post-procedure total CK elevation, (2) incidence of troponin T elevation (in those patients with normal baseline values), (3) median peak values of CK, CKMB, and troponin T, (4) rescue therapy with GP IIb/IIIa inhibitors, and (5) combination of death from any cause, myocardial necrosis, recurrent MI within 30 days, or severe myocardial ischemia requiring urgent coronary-artery bypass surgery or target lesion revascularisation (“TLR”) within 30 days of intervention (“MACE”).
Urgent target lesion revascularisation included any coronary artery bypass graft surgery or a second PCI on the original target lesion performed for recurrent myocardial ischemia. Successful PCI was defined as post-procedure residual stenosis at the target lesion<30% of reference vessel diameter without major adverse outcome (death, Q wave MI, emergent CABG). Major bleeding was defined as bleeding requiring transfusion, surgery, prolongation of hospital stay, or >8% drop in hematocrit after PCI. Rescue GP IIb/IIIa use was defined as drug given after the guide wire passage during PCI.

[1] = patients with mechanical complications, n = 17
[2] = patients with no mechanical complication, n = 58

What does the source list for `CC(C)NCC(O)COc1cccc2ccccc12` (stereo not shown) [Propranolol, propranolol]?
Change in heart rate or blood pressure after IC injection (15 μg/kg intracoronary): no change; Incidence of elevation of CKMB (>5 ng/ml) after PCI (0.015 mg/kg): 17%; Incidence of elevation of Troponin T (>0.10 ng/ml) after PCI (0.015 mg/kg, 16 h): 13%; Death (30 days after PCI, n = 75): 0%; Recurrent MI (30 days after PCI, n = 75): 1%; Urgent/emergent TLR (30 days after PCI, n = 75): 0%; Significant bleeding (after PCI): 3%; Combined 30d MACE (death, myocardial necrosis, recurrent MI, urgent TLR within 30 days, n = 75): 18%; "Rescue" GP IIb/IIIa inhibitors use required (drug given after guide wire passage during PCI): 11%; Adverse systemic effects after IC injection (including respiratory difficulties in 5 patients with history of COPD or asthma): no adverse systemic effects; Heart rate, post drug (largest change after drug administration, baseline 67 ± 11): 66 ± 11 beats/min; Systolic BP, post drug (largest change after drug administration, baseline 139 ± 25): 137 ± 23 mmHg; CKMB elevation ≧3 times upper limit of normal (number of patients out of 75): 7 patients; Elevation of CK (% of patients) [1]: 18%; Elevation of CKMB (% of patients) [1]: 41%; Elevation of troponin T (% of patients) [1]: 35%; Elevation of CK (% of patients) [2]: 0%; Elevation of CKMB (% of patients) [2]: 10%; Elevation of troponin T (% of patients) [2]: 5%; Median value of CKMB (post PCI, all patients): 2.1; Median value of total CK (post PCI, all patients): 67; Median value of troponin T (post PCI, all patients): 0.03; Favorable effect on preventing myocardial necrosis, subgroup analysis (relative risk by subgroups, FIG. 3): broadly applicable; Recurrent MI (number of patients) (within 30 days): 1 patients; Urgent TLR required (number of patients) (within 30 days): 0 patients

From patent US6756408B2, “Methods and materials for protecting against myocardial cell damage related to coronary intervention by regional beta blocker therapy” (Board of Regents, The University of Texas System, priority 2001, dated 2004)
